Data set [1] concerns Dahl salt-sensitive (DS) rat. As to conditions: low, non-antihypertensive doses, cited from earlier work; for memory function (passive avoidance): aged DS rats on low salt diet.
Another data set concerns the target T1, glucocorticoid receptors (Homo sapiens, UniProt P04150).
T1 sequence (P04150 1-777): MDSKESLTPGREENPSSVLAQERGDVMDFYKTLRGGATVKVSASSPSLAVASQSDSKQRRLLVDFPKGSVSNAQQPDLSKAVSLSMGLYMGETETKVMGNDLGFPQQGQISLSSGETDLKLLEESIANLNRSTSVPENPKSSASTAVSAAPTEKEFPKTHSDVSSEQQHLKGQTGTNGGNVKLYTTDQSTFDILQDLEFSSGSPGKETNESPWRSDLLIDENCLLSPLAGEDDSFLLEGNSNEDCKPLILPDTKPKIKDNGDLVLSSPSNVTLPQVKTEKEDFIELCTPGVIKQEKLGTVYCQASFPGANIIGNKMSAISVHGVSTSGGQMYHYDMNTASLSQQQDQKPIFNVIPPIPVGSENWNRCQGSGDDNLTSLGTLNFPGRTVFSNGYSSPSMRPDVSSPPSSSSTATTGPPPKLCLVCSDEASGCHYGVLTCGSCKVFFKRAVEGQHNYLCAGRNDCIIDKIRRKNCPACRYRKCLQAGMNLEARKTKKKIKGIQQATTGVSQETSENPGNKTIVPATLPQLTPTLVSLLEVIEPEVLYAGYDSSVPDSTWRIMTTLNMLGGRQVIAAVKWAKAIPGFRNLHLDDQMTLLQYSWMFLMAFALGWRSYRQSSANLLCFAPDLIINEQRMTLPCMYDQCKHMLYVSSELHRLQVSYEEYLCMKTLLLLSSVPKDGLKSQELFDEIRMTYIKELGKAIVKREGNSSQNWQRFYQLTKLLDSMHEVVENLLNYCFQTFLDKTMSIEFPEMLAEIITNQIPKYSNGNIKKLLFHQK
As to conditions: cited from earlier work.

In data set [2] the target is T2, central mineralocorticoid receptors (Homo sapiens, UniProt P08235).
T2 sequence (P08235 1-984): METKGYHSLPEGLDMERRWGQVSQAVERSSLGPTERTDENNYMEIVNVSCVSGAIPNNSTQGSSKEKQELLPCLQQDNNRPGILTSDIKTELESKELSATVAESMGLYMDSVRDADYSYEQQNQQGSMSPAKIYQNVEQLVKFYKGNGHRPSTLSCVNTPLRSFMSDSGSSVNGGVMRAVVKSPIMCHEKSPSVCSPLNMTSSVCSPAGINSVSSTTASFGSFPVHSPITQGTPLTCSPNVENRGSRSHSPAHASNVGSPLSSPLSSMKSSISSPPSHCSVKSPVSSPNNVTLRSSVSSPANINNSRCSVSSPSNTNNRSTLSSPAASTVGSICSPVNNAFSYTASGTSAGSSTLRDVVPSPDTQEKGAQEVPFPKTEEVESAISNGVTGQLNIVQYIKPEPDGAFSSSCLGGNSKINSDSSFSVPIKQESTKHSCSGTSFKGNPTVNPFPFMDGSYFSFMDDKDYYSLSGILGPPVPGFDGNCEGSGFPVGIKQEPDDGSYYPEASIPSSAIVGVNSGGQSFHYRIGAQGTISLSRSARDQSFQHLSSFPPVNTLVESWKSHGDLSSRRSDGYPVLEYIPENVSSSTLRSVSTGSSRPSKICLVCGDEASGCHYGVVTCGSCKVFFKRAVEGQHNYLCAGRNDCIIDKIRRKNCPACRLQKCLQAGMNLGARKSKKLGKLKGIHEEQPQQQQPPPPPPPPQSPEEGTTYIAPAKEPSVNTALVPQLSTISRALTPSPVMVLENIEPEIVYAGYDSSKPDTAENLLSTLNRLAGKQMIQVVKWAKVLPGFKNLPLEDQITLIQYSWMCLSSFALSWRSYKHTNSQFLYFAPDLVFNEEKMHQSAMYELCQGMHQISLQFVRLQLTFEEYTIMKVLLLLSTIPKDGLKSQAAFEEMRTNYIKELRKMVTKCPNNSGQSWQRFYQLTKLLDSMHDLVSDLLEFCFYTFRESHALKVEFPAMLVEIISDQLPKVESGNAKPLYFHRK
As to conditions: cited from earlier work.

The test system of another data set is male Wistar rats. Conditions: cited from earlier work; for corticosterone-induced increase in behavioral reactivity: pretreatment, intracerebroventricular injection.
A further data set concerns mice. Conditions: cited from earlier work.
The subject of data set [3] is patients with mild-to-moderate hypertension. Briefly: Phase II dose-ranging study of eplerenone in mild-to-moderate hypertension. The format is in vivo, human. Conditions: for adjusted mean change in ABPM DBP from baseline to final visit / adjusted mean change in ABPM SBP from baseline to final visit: ambulatory blood pressure monitoring; for adjusted mean change in Cuff DBP from baseline to final visit / adjusted mean change in Cuff SBP from baseline to final visit: eight-week study. An excerpt: The adjusted mean changes (in mmHg) in diastolic blood pressure (DBP) and systolic blood pressure (SBP) from baseline to final visit are shown in Table 1A.

Data set [4] has as its system patients with HF or hypertension. Briefly: Phase II eplerenone HF and hypertension trials. The format is in vivo, human. As to conditions: 25 to 50 mg QD.
The nature of data set [5]: Dissolution rate of unformulated solid state forms of eplerenone. As to conditions: temperatures below the enantiotropic transition temperature. The format is physicochemical.
The nature of data set [6]: Physical stability of solid state forms of eplerenone. The class given is physicochemical. As to conditions: temperatures below the enantiotropic transition temperature.

Take `Cc1ccnc2c1nc(C1CC1)n2Cc1ccc(-c2ccccc2C(=O)O)cc1` [Compound E4177]: in data set [1], the “memory function (passive avoidance)” value was “slightly improved”, the “capillary densities in the CA1 regions” value is given as “not influenced” and the “hippocampal CA1 cells” value was “restored slightly”.

As to `C[C@]12C[C@H](O)[C@H]3[C@@H](CCC4=CC(=O)CC[C@@]43C)[C@@H]1CC[C@@H]2C(=O)CO` [Corticosterone], on glucocorticoid receptors, the “affinity for glucocorticoid receptors relative to mineralocorticoid receptors” value was “tenfold lower affinity”. Besides, the “affinity for central mineralocorticoid receptors” value in data set [2] is “high affinity”. Moreover, in the data set with male Wistar rats (50 micrograms/kg s.c.), the “adrenalectomy-increased behavioral reactivity towards the object” value is “blocked”.

Turning to `COC(=O)[C@@H]1CC2=CC(=O)CC[C@]2(C)[C@@]23O[C@@H]2C[C@@]2(C)[C@@H](CC[C@@]24CCC(=O)O4)[C@H]13` [Eplerenone, Pregn-4-ene-7,21-dicarboxylic acid, 9,11-epoxy-17-hydroxy-3-oxo-,γ-lactone, methyl ester, (7α,11α,17β)-], in the data set on mice (mouse, in vivo), the “effect on the ACE-inhibited mice” value was “had no effect” and the “retention-sparing effects of piracetam” value was “prevented”. Moreover, in [3] (25 mg BID), the “adjusted mean change in ABPM DBP from baseline to final visit” value (“adjusted mean change in ABPM DBP” for short) is recorded as −4.1 mmHg, the “adjusted mean change in ABPM SBP from baseline to final visit” value (shortened to “adjusted mean change in ABPM SBP”) was −7.5 mmHg, the “adjusted mean change in Cuff DBP from baseline to final visit” value (“adjusted mean change in Cuff DBP” below) is reported as −4.4 mmHg and the “adjusted mean change in Cuff SBP from baseline to final visit” value (“adjusted mean change in Cuff SBP” below) was −8.1 mmHg. In addition, in data set [3] (50 mg BID), the “adjusted mean change in ABPM DBP” value was −6.6 mmHg, the “adjusted mean change in ABPM SBP” value was −11.6 mmHg, the “adjusted mean change in Cuff DBP” value is listed as −7.8 mmHg and the “adjusted mean change in Cuff SBP” value is on record as −11.7 mmHg. Also, the “adjusted mean change in Cuff DBP” value in [3] (50 mg QD) is given as −4.5 mmHg. In [3] (100 mg QD), the “adjusted mean change in Cuff DBP” value is listed as −4.4 mmHg and the “adjusted mean change in Cuff SBP” value is reported as −7.9 mmHg. For the same molecule, the “frequency of transient hyperkalemia (i.e., $5.4 mmol/L)” value in data set [3] (200 mg BID and 400 mg QD treatment groups) is given as “increased frequency”. Besides, in data set [3] (200 mg BID), the “adjusted mean change in ABPM DBP” value is −9.0 mmHg, the “adjusted mean change in ABPM SBP” value is listed as −16.1 mmHg, the “adjusted mean change in Cuff DBP” value is −8.9 mmHg and the “adjusted mean change in Cuff SBP” value was −14.8 mmHg. Moreover, in data set [3] (400 mg QD), the “adjusted mean change in Cuff DBP” value was −8.7 mmHg and the “adjusted mean change in Cuff SBP” value is −15.0 mmHg. Further, in data set [3] (increasing doses, FIG. 1-1), the plasma renin activity result is recorded as “increased levels” and the serum aldosterone result is listed as “increased levels”. In [3] (increasing doses, FIG. 1-2), the systolic blood pressure result was “decreased”. Further, the diastolic blood pressure entry in [3] (increasing doses, FIG. 1-3) is “decreased”. Further, the tolerability entry in data set [3] (total daily doses 50, 100 or 400 mg) is reported as “well tolerated”. In data set [4], the “diuretic or hemodynamic effect” value is reported as “neither diuretic nor hemodynamic”; the “plasma BNP levels” value is “lowered”; the “plasma renin and aldosterone levels” value is given as “increased”.

On to `COC(=O)[C@@H]1CC2=CC(=O)CC[C@]2(C)[C@@]23O[C@@H]2C[C@@]2(C)[C@@H](CC[C@@]24CCC(=O)O4)[C@H]13` [Form H, eplerenone], for which the “dissolution rate, higher than unformulated Form L” value in data set [5] is “approximately 30%”.

As for `COC(=O)[C@@H]1CC2=CC(=O)CC[C@]2(C)[C@@]23O[C@@H]2C[C@@]2(C)[C@@H](CC[C@@]24CCC(=O)O4)[C@H]13` [Form L, eplerenone], in [6], the “physical stability relative to Form H” value was “greater physical stability”.

Take `CCC[C@@H]1CC2=CC(=O)CC[C@]2(C)[C@H]2CC[C@@]3(C)[C@@H](CC[C@@]3(O)CCC(=O)[O-])[C@H]12.[K+]` [RU28318]: the “corticosterone-induced increase in behavioral reactivity” value with male Wistar rats is listed as “prevented”.

With `CC#C[C@]1(O)CC[C@H]2[C@@H]3CCC4=CC(=O)CCC4=C3[C@@H](c3ccc(N(C)C)cc3)C[C@@]21C` [RU38486], the “corticosterone-induced increase in behavioral reactivity” value with male Wistar rats was “not effective”.

Consider `CCOC(=O)[C@H](CCc1ccccc1)N[C@H]1CCCN2CCC[C@@H](C(=O)O)N2C1=O` [cilazapril], for which, in data set [1], the “memory function (passive avoidance)” value is given as “dose-dependently improved”, the “capillary densities in the CA1 regions” value is recorded as “significant increases” and the “hippocampal CA1 cells” value is listed as “significant increases”.

As to `NC(=O)CN1CCCC1=O` [piracetam], the retention performance result with mice (pretreatment, amnesia induced by electro-shock) was “significantly improved”.

The values are drawn from patent publication US20060058274A1, “Use of an aldosterone receptor antagonist to improve cognitive function” (Pharmacia Corporation, priority 2000, published 2006).
